Tested on: CELLIC® CTec enzyme
Test: Cellulase activity of enzyme-surfactant solutions, carboxymethyl cellulose as substrate
Type: biochemical
Conditions: Table 3: 5 wt % surfactant + 10 wt % CELLIC CTec; for % Activity Increase: versus enzyme without surfactant; for Cellulase Activity (u/g): CMC substrate
Protocol: The experiments were set up for evaluating the effects of surfactants on enzymatic activity of CELLIC® CTec enzyme. The enzyme, surfactant, and water were mixed to form a solution containing 5 wt % surfactant and 10 wt % enzyme. For example, 1.0 g of CELLIC® CTec, 0.5 g of PLURONIC F108, and 8.5 g of deionized water were mixed to produce a solution containing 10 wt % enzyme and 5 wt % surfactant. The resulted enzyme-surfactant solutions were tested for cellulase activity. Carboxymethyl cellulose was used as the assay substrate. A control solution containing 10 wt % enzyme without surfactant was included for comparison.
Five PLURONIC surfactants with different HLB values are evaluated for their effects on the enzymatic activity of CELLIC® CTec in water solution. Each surfactant was mixed with the enzyme in water. The resulting solution was then assayed for cellulase activity using carboxymethyl cellulose (CMC) as the substrate. […] F108 enhanced the enzymatic activity by 22.3%.

Row | Substance | % Activity Increase | Cellulase Activity (u/g)
1 | Cocobis(2-hydroxyethyl)methyl ammonium chloride | 6.9% | 351.6 u/g
2 | Sorbitan mono-oleate [Sorbitan mono-oleate, non-ionic] | −2.3% | 321.5 u/g
3 | Sorbitan mono-oleate ester [Sorbitan mono-oleate ester, non-ionic] | 7.3% | 353.1 u/g

— patent publication US8460900B2, “Methods to degrade sludge from pulp and paper manufacturing” (Buckman Laboratories International, Inc., priority 2010, dated 2013)
